Experiments:
Type in all cases: in vivo
[1] = tested on: Japanese millet (Echinochloa crus-galli, ECHCF); test: Example 52 greenhouse herbicidal inhibition, acifluorfen sodium compositions (Table 52); conditions: evaluated 10 days after application
Excerpt: (§1) Seeds of the plant species indicated were planted in 85 mm square pots in a soil mix which was previously steam sterilized and prefertilized with a 13-13-14 NPK slow release fertilizer at a rate of 3.6 kg/m^3. The pots were placed in a greenhouse with sub-irrigation. About one week after emergence, seedlings were thinned as needed, including removal of any unhealthy or abnormal plants, to create a uniform series of test pots.
(§2) The plants were maintained for the duration of the test in the greenhouse where they received a minimum of 14 hours of light per day. If natural light was insufficient to achieve the daily requirement, artificial light with an intensity of approximately 475 microeinsteins was used to make up the difference. Exposure temperatures were not precisely controlled but averaged about 27° C. during the day and about 18° C. during the night. Plants were sub-irrigated throughout the test to ensure adequate soil moisture levels.
(§3) A set of pots was left untreated as a reference against which effects of the treatments could later be evaluated.
(§4) Application of glyphosate compositions was made by spraying with a track sprayer fitted with a 9501E nozzle calibrated to deliver a spray volume of 93 liters per hectare (l/ha) at a pressure of 166 kilopascals (kPa). After treatment, pots were returned to the greenhouse until ready for evaluation.
(§5) For evaluation of herbicidal effectiveness, all plants in the test were examined by a single practiced technician, who recorded percent inhibition, a visual measurement of the effectiveness of each treatment by comparison with untreated plants.
(§6) Velvetleaf (Abutilon theophrasti, ABUTH), Japanese millet (Echinochloa crus-galli, ECHCF) and prickly sida (Sida spinosa, SIDSP) plants were grown and treated by the standard procedures given above. Applications of spray compositions were made 15 days after planting ABUTH, 9 days after planting ECHCF and 22 days after planting SIDSP. Evaluation of herbicidal inhibition was done 10 days after application.

[2] = tested on: Velvetleaf (Abutilon theophrasti, ABUTH); test: as above; conditions: evaluated 10 days after application
Excerpt: as §1, §2, §3, §4, §5, §6

[3] = tested on: Prickly sida (Sida spinosa, SIDSP); test: as above; conditions: evaluated 10 days after application
Excerpt: as §1, §2, §3, §4, §5, §6

[4] = tested on: Japanese millet (Echinochloa crus-galli, ECHCF); test: Example 53 greenhouse herbicidal inhibition, asulam compositions (Table 53); conditions: asulam rate 200 g a.i./ha; evaluated 14 days after application
Excerpt: as §1
(§7) The plants were maintained for the duration of the test in the greenhouse where they received a minimum of 14 hours of light per day. If natural light was insufficient to achieve the daily requirement, artificial light with an intensity of approximately 475 microeinsteins was used to make up the difference. […]
as §3, §4
(§8) For evaluation of herbicidal effectiveness, all plants in the test were examined by a single practiced technician, who recorded percent inhibition, a visual measurement of the effectiveness of each treatment by comparison with untreated plants. […]

[5] = tested on: Prickly sida (Sida spinosa, SIDSP); test: as above; conditions: asulam rate 200 g a.i./ha; evaluated 14 days after application
Excerpt: as §1, §7, §3, §4, §8

[6] = tested on: Japanese millet (Echinochloa crus-galli, ECHCF); test: Example 54 greenhouse herbicidal inhibition, dicamba sodium compositions (Table 54); conditions: evaluated 17 days after application
Excerpt: as §1, §2, §3, §4, §5
as §6, with “14” for “15”, “8” for “9”, “21” for “22”, “17” for “10”

[7] = tested on: Velvetleaf (Abutilon theophrasti, ABUTH); test: as above; conditions: evaluated 17 days after application
Excerpt: as §1, §2, §3, §4, §5
as §6, with “14” for “15”, “8” for “9”, “21” for “22”, “17” for “10”

[8] = tested on: Prickly sida (Sida spinosa, SIDSP); test: as above; conditions: evaluated 17 days after application
Excerpt: as §1, §2, §3, §4, §5
as §6, with “14” for “15”, “8” for “9”, “21” for “22”, “17” for “10”

[9] = tested on: Japanese millet (Echinochloa crus-galli, ECHCF); test: Example 57 greenhouse herbicidal inhibition, fluazifop-p-butyl compositions (Table 57); conditions: fluazifop-p rate 5 g a.i./ha; evaluation 10 days after application
Excerpt: as §1, §2, §3
[…] After treatment, pots were returned to the greenhouse until ready for evaluation.
as §8

[10] = tested on: Japanese millet (Echinochloa crus-galli, ECHCF); test: Example 51 greenhouse herbicidal inhibition, paraquat dichloride compositions (Table 51); conditions: evaluated 12 days after application
Excerpt: as §1, §2, §3, §4, §5
as §6, with “14” for “15”, “8” for “9”, “21” for “22”, “12” for “10”

[11] = tested on: Velvetleaf (Abutilon theophrasti, ABUTH); test: as above; conditions: evaluated 12 days after application
Excerpt: as §1, §2, §3, §4, §5
as §6, with “14” for “15”, “8” for “9”, “21” for “22”, “12” for “10”

[12] = tested on: Prickly sida (Sida spinosa, SIDSP); test: as above; conditions: evaluated 12 days after application
Excerpt: as §1, §2, §3, §4, §5
as §6, with “14” for “15”, “8” for “9”, “21” for “22”, “12” for “10”

O=C(O)c1cc(Oc2ccc(C(F)(F)F)cc2Cl)ccc1[N+](=O)[O-] [Acifluorfen]
% Inhibition ECHCF ([1]; acifluorfen rate 25 g a.i./ha): 2% | % Inhibition ECHCF ([1]; acifluorfen rate 50 g a.i./ha): 7% | % Inhibition ECHCF ([1]; acifluorfen rate 100 g a.i./ha): 18% | % Inhibition ECHCF ([1]; acifluorfen rate 200 g a.i./ha): 35% | % Inhibition ABUTH ([2]; acifluorfen rate 25 g a.i./ha): 20% | % Inhibition ABUTH ([2]; acifluorfen rate 50 g a.i./ha): 32% | % Inhibition ABUTH ([2]; acifluorfen rate 100 g a.i./ha): 52% | % Inhibition ABUTH ([2]; acifluorfen rate 200 g a.i./ha): 62% | % Inhibition SIDSP ([3]; acifluorfen rate 25 g a.i./ha): 15% | % Inhibition SIDSP ([3]; acifluorfen rate 50 g a.i./ha): 17% | % Inhibition SIDSP ([3]; acifluorfen rate 100 g a.i./ha): 35% | % Inhibition SIDSP ([3]; acifluorfen rate 200 g a.i./ha): 40%

COC(=O)NS(=O)(=O)c1ccc(N)cc1 [Asulam]
% Inhibition ECHCF [4]: 12% | % Inhibition SIDSP [5]: 0%

COc1c(Cl)ccc(Cl)c1C(=O)O [Dicamba]
% Inhibition ECHCF ([6]; dicamba rate 25 g a.i./ha): 0% | % Inhibition ECHCF ([6]; dicamba rate 50 g a.i./ha): 0% | % Inhibition ECHCF ([6]; dicamba rate 100 g a.i./ha): 0% | % Inhibition ECHCF ([6]; dicamba rate 200 g a.i./ha): 5% | % Inhibition ABUTH ([7]; dicamba rate 25 g a.i./ha): 47% | % Inhibition ABUTH ([7]; dicamba rate 50 g a.i./ha): 63% | % Inhibition ABUTH ([7]; dicamba rate 100 g a.i./ha): 82% | % Inhibition ABUTH ([7]; dicamba rate 200 g a.i./ha): 93% | % Inhibition SDSP ([8]; dicamba rate 25 g a.i./ha): 30% | % Inhibition SDSP ([8]; dicamba rate 50 g a.i./ha): 40% | % Inhibition SDSP ([8]; dicamba rate 100 g a.i./ha): 50% | % Inhibition SDSP ([8]; dicamba rate 200 g a.i./ha): 58%

CCCCOC(=O)[C@@H](C)Oc1ccc(Oc2ccc(C(F)(F)F)cn2)cc1 [Fluazifop-p-butyl (technical)]
% Inhibition ECHCF [9]: 3%

C[n+]1ccc(-c2cc[n+](C)cc2)cc1 [Paraquat dichloride]
% Inhibition ECHCF ([10]; paraquat rate 25 g a.i./ha): 83% | % Inhibition ECHCF ([10]; paraquat rate 50 g a.i./ha): 78% | % Inhibition ECHCF ([10]; paraquat rate 100 g a.i./ha): 84% | % Inhibition ECHCF ([10]; paraquat rate 200 g a.i./ha): 95% | % Inhibition ABUTH ([11]; paraquat rate 25 g a.i./ha): 50% | % Inhibition ABUTH ([11]; paraquat rate 50 g a.i./ha): 57% | % Inhibition ABUTH ([11]; paraquat rate 100 g a.i./ha): 73% | % Inhibition ABUTH ([11]; paraquat rate 200 g a.i./ha): 85% | % Inhibition SIDSP ([12]; paraquat rate 25 g a.i./ha): 55% | % Inhibition SIDSP ([12]; paraquat rate 50 g a.i./ha): 60% | % Inhibition SIDSP ([12]; paraquat rate 100 g a.i./ha): 69% | % Inhibition SIDSP ([12]; paraquat rate 200 g a.i./ha): 99%

Reference: patent US6479434B1, “Composition and method for treating plants with exogenous chemicals” (Monsanto Technology LLC, priority 1996, dated 2002)
